Measurements published in patent US8637237B2, “Methods, compositions, and systems for the identification of species-specific or developmental stage-specific insecticides” (The University of North Carolina at Greensboro, priority 2003, dated 2014).

Target: T1, VP16dEcR/RXR (Drosophila melanogaster, UniProt P34021)
T1 construct: expressed in transfected cells; host or cells: CHO
T1 sequence (P34021 252-878 limits assumed): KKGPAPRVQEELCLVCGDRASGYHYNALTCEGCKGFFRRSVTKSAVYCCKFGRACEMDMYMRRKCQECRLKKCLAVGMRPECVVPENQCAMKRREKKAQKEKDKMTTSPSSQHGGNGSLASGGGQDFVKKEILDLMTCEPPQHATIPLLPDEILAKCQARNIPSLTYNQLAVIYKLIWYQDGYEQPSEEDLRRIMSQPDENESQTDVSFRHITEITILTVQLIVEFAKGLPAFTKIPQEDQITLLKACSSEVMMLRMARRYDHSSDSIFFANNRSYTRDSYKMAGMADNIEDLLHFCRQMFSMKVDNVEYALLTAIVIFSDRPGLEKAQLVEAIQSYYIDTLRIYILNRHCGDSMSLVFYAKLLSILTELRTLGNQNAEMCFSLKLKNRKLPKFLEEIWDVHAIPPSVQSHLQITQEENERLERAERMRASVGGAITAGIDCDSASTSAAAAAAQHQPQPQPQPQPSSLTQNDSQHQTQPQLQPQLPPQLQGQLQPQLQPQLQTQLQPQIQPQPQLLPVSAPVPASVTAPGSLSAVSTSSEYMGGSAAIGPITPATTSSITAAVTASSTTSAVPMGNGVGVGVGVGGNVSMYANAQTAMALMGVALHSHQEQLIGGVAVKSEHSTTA
T1 sequence (P28700 1-467 partner): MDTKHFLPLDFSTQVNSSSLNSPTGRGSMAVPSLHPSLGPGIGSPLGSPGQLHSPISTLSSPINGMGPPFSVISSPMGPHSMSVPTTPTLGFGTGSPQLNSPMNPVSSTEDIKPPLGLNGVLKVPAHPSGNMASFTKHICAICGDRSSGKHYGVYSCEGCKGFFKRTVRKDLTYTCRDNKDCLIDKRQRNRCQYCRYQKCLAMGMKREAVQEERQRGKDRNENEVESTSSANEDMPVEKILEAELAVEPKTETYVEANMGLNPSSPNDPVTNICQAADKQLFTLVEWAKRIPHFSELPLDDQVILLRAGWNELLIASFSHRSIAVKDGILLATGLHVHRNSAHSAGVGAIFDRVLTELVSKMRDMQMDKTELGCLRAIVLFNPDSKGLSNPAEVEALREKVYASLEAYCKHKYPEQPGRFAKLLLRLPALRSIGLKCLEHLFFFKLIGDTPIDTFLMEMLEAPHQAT
Assay: VP16dEcR with RXR, (EcRE)5-ΔMTV reporter in CHO cells
Type: cell-based
Design: key to MurA (inducibility): (+) designates a change in transcriptional level that exceeds 2.5-fold; (++) indicates a response at a lower dosage than other EcR forms
Experimental: These experiments employed a mammalian cell culture system using Chinese hamster ovary cells (CHO) to evaluate the transcriptional function of Drosophila melanogaster EcR and USP using methods described previously (U.S. Patent Application Publication No: 2005/0049230; Henrich et al, 2003). Cells were seeded in 6-well polypropylene culture plates (Falcon) with 10^5 cells per well on the day prior to transfection. Transfection was subsequently performed using either calcium phosphate (Kitareewan et al., 1996, Mol. Biol. Cell, 7:1153-1196) or a GenePorter reagent (Gene Therapy Systems, Inc; San Diego, Calif.) following manufacturer's protocols. Each well received 1.25 μg of (EcRE)5-ΔMTV-CAT (five copies of the hsp27 EcRE inserted into an mouse mammary tumor virus (MTV) promoter upstream of the chloramphenicol acetyltransferase (CAT) gene) or (EcRE)5-ΔMTV-LUC (the same promoter attached to firefly luciferase), 1.25 μg of pCH111 (SV40 early promoter linked to the β-galactosidase gene) to normalize CAT activity, and 0.25 μg of each expression plasmid (EcR, FXR, RXR, USP) that was tested. The cells were incubated with plasmid DNA for seven hours and then washed with 1×PBS. Muristerone A (murA; Alexis Biochemicals) or 20-hydroxyecdysone (20E; Sigma) dissolved in ethanol to a concentration of 10 mM was diluted as necessary to the final assay concentration (FAC) in 2 ml of fresh incubation medium that was then applied to the cells. Similarly, JHIII (Sigma) was dissolved in dimethyl sulfoxide (DMSO) to a concentration of 80 μM and diluted into the incubation medium to its final assay concentration (20, 40, 80, 160 μM). […] A corresponding volume of ethanol and DMSO were added to control cells for all experiments. […] Both β-galactosidase and CAT reporter activity were measured based on previously used methods (Kitareewan et al, 1996). […]
Transcriptional activity, measured as ^14C-chloramphenicol counts (for measuring CAT activity) or relative luciferase activity (RLU) was quantified for each cell lysate. […]

CC(C)(O)CC[C@@H](O)[C@](C)(O)[C@H]1CC[C@@]2(O)C3=CC(=O)[C@@H]4C[C@@H](O)[C@@H](O)C[C@]4(C)[C@H]3CC[C@]12C [20E, 20-hydroxyecdysone]
20E (inducibility) (10 μM 20E): + ((+) designates a change in transcriptional level that exceeds 2.5-fold)

COC(=O)/C=C(\C)CC/C=C(\C)CC[C@H]1OC1(C)C [JHIII, juvenile hormone III]
MurA + JHIII (JHIII potentiation) (0.1 μM murA + 80 μM JHIII): + ((+) indicates observed potentiation that exceeds 2-fold above the levels observed with ecdysteroid alone)

CC(C)CC[C@@H](O)[C@](C)(O)[C@H]1CC[C@@]2(O)C3=CC(=O)[C@]4(O)C[C@@H](O)[C@@H](O)C[C@]4(C)[C@H]3[C@H](O)C[C@]12C [murA, muristerone A]
MurA (inducibility) (0.1 μM murA): ++
